{"source": "patent US7642261B2", "about": "“Use of 1-[4-(5-cyanoindol-3-yl)butyl]-4-(2-carbamoyl-benzofuran-5-yl)-piperazine and its physiologically acceptable salts” (Merck Patent GmbH, priority 2002, dated 2010)", "assay_type_in_all_cases": "in vivo", "key": {"mice [1]": {"test_system": "mice", "assay": "Elevated Plus Maze (model for agoraphobia), mice", "conditions": "10 mg/kg p.o., 3 min test period", "method": "A typical model for Agoraphobia is named Elevated Plus Maze according to S. Pellow, P. Chopin, S. E. File, M. Briley, J. Neurosci. Meth., 1985,14: 145-167.\nThe apparatus consists of an X-shaped platform elevated from the floor, with two “open” unprotected arms and two “closed” protected arms, with animals having free access to both arms. The rat or mouse is placed in the centre of the arms, and the number of entires made and the time spent on the open arms is measured in a 3 min test period. Normal animals have very low basal levels, i.e. avoid entering the open arms and stay only a for a very brief period on open arms.\nIn rats, a dose of 10 mg/kg p.o. increased number of entries by 56% and time spent on open arms by 76%."}, "mice [2]": {"test_system": "mice", "assay": "Neophobia model: unfamiliar food in a novel environment", "conditions": "mice deprived from food for 18 h, oral application, 3 mg/kg", "method": "In a typical model for neophobia, mice deprived from food for 18 h are given access to unfamiliar food in a novel environment [P. Soubrie at al., Psychopharmacologica, 1975, 45: 203-210]. 1-[4-(5-cyanoindol-3-yl)butyl]-4-(2-carbamoyl-benzofuran-5-yl)-piperazine or one of its physiologically acceptable salts, in particular 1-[4-(5-cyanoindol-3-yl)butyl]-4-(2-carbamoyl-benzofuran-5-yl)-piperazine hydrochloride, following oral application increased food intake by 21% at the dose of 3 mg/kg."}, "mice [3]": {"test_system": "mice", "assay": "Four Plate Test (model for acute stress indication)", "conditions": "oral dose of 3 mg/kg, five minute test period", "method": "A typical model for acute stress indication is the Four Plate Test according to C. Aron, P. Simon, C. Larousse, J. R. Boissier, Neuropharmacology 1971, 10: 459-469.\nThe apparatus consists of small box with a floor made up of four metal plates. Each time the mouse crosses from one plate to another, it is given a brief electric footshock reducing the amount of exploratory behavior. The number of punished crossings from one plate to another (i.e. number of shocks accepted by the animal) is recorded during a five minute test period. Normal mice make only few punished crossings, i.e. accept only a few footshocks.\n1-[4-(5-cyanoindol-3-yl)butyl]-4-(2-carbamoyl-benzofuran-5-yl)-piperazine hydrochloride following and oral dose of 3 mg/kg increased the number of punished crossings by 41%."}}}
{"smiles": "Cl.N#Cc1ccc2[nH]cc(CCCCN3CCN(c4ccc5oc(C(N)=O)cc5c4)CC3)c2c1", "note": "[1-[4-(5-cyanoindol-3-yl)butyl]-4-(2-carbamoyl-benzofuran-5-yl)-piperazine hydrochloride]", "values": [{"measurement": "increase of number of entries on open arms", "setting": "mice [1]", "result": 157, "unit": "%"}, {"measurement": "increase of time spent on open arms", "setting": "mice [1]", "result": 105, "unit": "%"}, {"measurement": "increase of food intake", "setting": "mice [2]", "result": 21, "unit": "%"}, {"measurement": "increase of number of punished crossings", "setting": "mice [3]", "result": 41, "unit": "%"}]}
